Publication PMC12316777

What was measured:
[1] = biological target: T1, SARS-CoV-2 nsp13 (helicase) (Severe acute respiratory syndrome coronavirus 2, UniProt P0DTD1); test: ATPase assay (phosphate release); format: biochemical; conditions: for IC50: 20 nM nsp13, n = 3, read-out: IC50 (± SD) ATPase
[2] = biological target: T1, SARS-CoV-2 nsp13 (helicase); test: FRET DNA duplex unwinding assay; format: biochemical; conditions: for IC50: 20 nM nsp13, n = 3, read-out: IC50 (± SD) DNA unwinding
SARS-CoV-2 nsp13 [3] = biological target: T2, SARS-CoV-2 nsp13 (Severe acute respiratory syndrome coronavirus 2, UniProt P0DTD1); test: BODIPY FL ATP-γ-S fluorescence assay (ATP binding); conditions: for fluorescence intensity of BODIPY FL ATP-γ-S with nsp13: 1 μM compound, 10 min pre-incubation, 10 nM BODIPY FL ATP-γ-S
SARS-CoV-2 nsp13 [4] = biological target: T2, SARS-CoV-2 nsp13; test: Metal displacement analysis (equilibrium dialysis, ICP-MS), nsp13; format: binding
Method: Nsp13 also consists of 3 zinc finger sites at its N-terminal zinc-binding domain. Therefore, we first investigated whether Au(I) could interact with zinc fingers in nsp13 by equilibrium dialysis.
Au(I) binding and Zn(II) release on nsp10 and nsp14 were determined by Inductively Coupled Plasma Mass Spectrometry (ICP-MS) on Agilent 7700 × ICP-MS (Agilent Technologies). […] Dialysis tubes loaded with 100 μL Zn-bound proteins (5 μM for nsp14 and nsp13 and 20 μM for nsp10) or protein buffer were placed into 50 mL dialysis buffer in the presence of different concentrations of Au(I) compounds (as Au(PEt3)Cl) with mild shaking at 18 °C overnight. The protein concentration was measured by bicinchoninic acid (BCA) assay, and the metal concentration of solution both inside and outside the dialysis tubes was determined by ICP-MS.

SARS-CoV-2 nsp13 [5] = biological target: T2, SARS-CoV-2 nsp13; test: EMSA of nsp13 binding to dsDNA substrate; conditions: 2 μM nsp13, 0, 2, 10 and 20 μM compound, 2 h, 100 nM DNA
Method: We preincubated 2 μM nsp13 with different concentrations (0, 2, 10 and 20 μM) of Au(PEt3)Cl for 2 h at room temperature, then incubated with 100 nM DNA substrate to form the protein-dsDNA complex.
EMSA for investigating the binding between nsp13 and DNA substrates was performed as previously reported. Briefly, 2 μM nsp13 was incubated with Au(PEt3)Cl in a dose-dependent manner in 20 μL binding buffer (20 mM Tris pH 7.4, 20 mM NaCl, 1 mM TCEP, 5 mM MgCl2) for 2 h at 25 °C. Then, incubated per sample at 37 °C with 100 nM dsDNA. After 15 min incubation, the reaction was stopped by 4 μL loading buffer (50% glycerol, 0.02% bromophenol blue). The reaction mixture was electrophoresed in 8% native-polyacrylamide gels at 150 V for 1 h. The gel was stained by GelRed (Sigma Aldrich) for 10 min and images were captured by iBright™ CL750 Imaging System (Thermo Fisher Scientific).
Fig. S3 EMSA image of the binding between DNA substrate and nsp13 in the presence of increasing
amounts of Au(I)- based compound (as Au(PEt3)Cl).
(1 picture or pasted object on this page, not shown here)

[6] = test system: SARS-CoV-2 variants Omicron BA.5.2 and XBB in VeroE6-TMPRSS2 cells; format: cell-based

| Compound | IC50 [1] | IC50 [2] | fluorescence intensity of BODIPY FL ATP-γ-S with nsp13 (SARS-CoV-2 nsp13 [3]) | inhibition of ATPase activity ([1]; 50 mol equiv of compound) | inhibition of DNA unwinding activity ([2]; 50 mol equiv of compound) | also measured |
| --- | --- | --- | --- | --- | --- | --- |
| (1-(adamantan-1-yl)thiourea)-(triethylphosphine)-gold(I) [Au-amantadine] | 1150 ± 230 nM | 720 ± 130 nM | decreased |  |  |  |
| O=S(=O)([O-])[S-].O=S(=O)([O-])[S-].[Au+].[Na+].[Na+].[Na+] [Na3Au(S2O3)2, gold(I) sodium thiosulfate] | 250 ± 80 nM | 380 ± 50 nM | decreased | more than 50% | more than 50% |  |
| [Cl][Au] [AuCl, gold(I) chloride] | 200 ± 10 nM | 200 ± 30 nM | decreased | more than 50% | more than 50% |  |
| CC[PH](CC)(CC)[Au][S]CC(NC(=O)CCC(N)C(=O)O)C(=O)NCC(=O)O [Au-GSH, ((R)-2-((S)-4-amino-4-carboxybutanamido)-3-((carboxymethyl)amino)-3-oxopropyl)thiolate)-(triethyl-phosphine)-gold(I)] |  |  |  |  |  | ATPase enzymatic activity remaining ([1]; 50 mol equiv of compound): 51.33%; DNA unwinding enzymatic activity remaining ([2]; 50 mol equiv of compound): 41.67% |
| CCP(CC)CC.[Au+].[Cl-] [Au(PEt3)Cl, chloro(triethylphosphine)gold(I)] | 400 ± 90 nM | 330 ± 40 nM | decreased | more than 50% | more than 50% | Au(I) bound to nsp13 (SARS-CoV-2 nsp13 [4]; equilibrium dialysis, ICP-MS): ca. 2.97 ± 0.20 mol equiv; Zn(II) release from nsp13 (SARS-CoV-2 nsp13 [4]; equilibrium dialysis, ICP-MS): ca. 2.88 ± 0.18 mol equiv; maximal binding capacity (Bmax), nsp13 (SARS-CoV-2 nsp13 [4]; nonlinear fit to specific binding plot): 3.33 ± 0.11; Kd (SARS-CoV-2 nsp13 [4]; nonlinear fit to specific binding plot, read-out: dissociation constant (Kd), nsp13): 2290 ± 220 nM; fluorescence intensity of BODIPY FL ATP-γ-S with nsp13, dose dependence (SARS-CoV-2 nsp13 [3]; 0.1, 0.2, 0.5 and 1 μM): decreased in a dose-dependent manner; effect on binding of nsp13 to dsDNA (SARS-CoV-2 nsp13 [5]): did not disrupt |
| CC(=O)OC[C@H]1O[C@@H]([S-])[C@H](OC(C)=O)[C@@H](OC(C)=O)[C@@H]1OC(C)=O.CCP(CC)CC.[Au+] [auranofin] |  |  |  |  |  | maximum reduction of viral load in the cell culture supernatant [6]: 4 − 6 log10 units |
